Measurements from patent US20110318393A1, “Substituted Pyrazole Compounds” (MIIKANA THERAPEUTICS, INC., priority 2008, published 2011).

Tests used:
Format in all cases: biochemical
[1] = target: T1, N-terminal GST-tagged recombinant human Flt3, residues 564-end (Homo sapiens, UniProt P36888); experiment: Flt3 kinase inhibition assay (33P-ATP filter assay); details: 40 minutes, room temperature; less than or equal to 100 nM
T1 construct: recombinant human Flt3, residues 564-end; GST (N); purchased Upstate USA Inc, Charlottesville, Va
T1 sequence (P36888 564-993 limits assumed): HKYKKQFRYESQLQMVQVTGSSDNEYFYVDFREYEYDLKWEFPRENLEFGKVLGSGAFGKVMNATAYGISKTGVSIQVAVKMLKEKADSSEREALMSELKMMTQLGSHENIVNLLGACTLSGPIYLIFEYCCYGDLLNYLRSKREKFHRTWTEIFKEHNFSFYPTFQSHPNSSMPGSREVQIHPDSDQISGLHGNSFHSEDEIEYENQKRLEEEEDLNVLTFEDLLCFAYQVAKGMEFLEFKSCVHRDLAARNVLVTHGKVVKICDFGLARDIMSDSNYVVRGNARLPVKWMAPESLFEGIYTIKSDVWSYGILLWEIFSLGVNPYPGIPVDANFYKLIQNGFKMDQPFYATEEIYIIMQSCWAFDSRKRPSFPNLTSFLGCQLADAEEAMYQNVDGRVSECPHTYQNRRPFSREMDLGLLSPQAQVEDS
Procedure: (§1) Compounds were assayed for Flt3 kinase inhibitory activity using N-terminal GST-tagged recombinant human Flt3, residues 564-end (Upstate USA Inc, 706 Forest Street, Charlottesville, Va.). Serial dilutions of compound were assayed in a final reaction volume of 25 μL by incubating a solution of the above Flt3 kinase (5-10 mU), 8 mM MOPS (3-(N-morpholino)propanesulfonic acid) pH 7.0, 0.2 mM EDTA (ethylenediamine tetracetic acid), 50 μM amino acid sequence EAIYAAPFAKKK (Upstate USA Inc, 706 Forest Street, Charlottesville, Va.), and 10 mM magnesium acetate and [γ-^33P-ATP] (specific activity of about 500 cpm/pmol, concentration as required). The reaction was initiated by the addition of the magnesium acetate and [γ-^33P-ATP] mixture. After incubation for 40 minutes at room temperature, the reaction was stopped by the addition of 5 μL of a 3% phosphoric acid solution. A 10 μL aliquote of the reaction was then spotted onto a P30 filtermat (PerkinElmer, Wellesley, Mass.) and washed three times for five minutes in 75 mM phosphoric acid and once in methanol prior to drying and scintillation counting. Inhibition of Flt3 activity was determined by comparison to assays that contained no inhibitor.

Aurora B kinase = target: T2, Aurora B kinase (Homo sapiens, UniProt Q96GD4); experiment: Aurora B (Aurora 1) inhibition assay, Z'-Lyte kinase assay; details: ATP 50 μM, 16 h; less than or equal to 100 nM
T2 construct: purchased BPS Biosciences, San Diego, Calif

[2] = target: T3, N-terminal His-tagged human Src (Homo sapiens, UniProt P12931); experiment: Src kinase inhibition assay (33P-ATP filter assay); details: 40 minutes, room temperature; less than or equal to 100 nM
T3 construct: His (N); purchased Upstate USA Inc, Charlottesville, Va
Procedure: Compounds were assayed for Src kinase inhibitory activity using N-terminal His-tagged human Src (Upstate USA Inc, 706 Forest Street, Charlottesville, Va.). Serial dilutions of compound were assayed in a final reaction volume of 25 μL by incubating a solution of the above Src kinase (5-10 mU), 8 mM MOPS (3-(N-morpholino)propanesulfonic acid) pH 7.0, 0.2 mM EDTA (ethylenediamine tetracetic acid), 250 μM amino acid sequence KVEKIGEGTYGVVYK (Upstate USA Inc, 706 Forest Street, Charlottesville, Va.), and 10 mM magnesium acetate and [γ-^33P-ATP] (specific activity of about 500 cpm/pmol, concentration as required). The reaction was initiated by the addition of the magnesium acetate and [γ-^33P-ATP] mixture. After incubation for 40 minutes at room temperature, the reaction was stopped by the addition of 5 μL of a 3% phosphoric acid solution. A 10 μL aliquote of the reaction was then spotted onto a P30 filtermat (PerkinElmer, Wellesley, Mass.) and washed three times for five minutes in 75 mM phosphoric acid and once in methanol prior to drying and scintillation counting. Inhibition of Src activity was determined by comparison to assays that contained no inhibitor.

recombinant Aurora A = target: T4, recombinant Aurora A (Homo sapiens, UniProt O14965); experiment: Aurora A (Aurora 2) inhibition assay, Z'-Lyte kinase assay; details: ATP 10 μM, 1 h; less than or equal to 100 nM
T4 construct: purchased Upstate, Lake Placid, N.Y
T4 sequence (O14965 1-403): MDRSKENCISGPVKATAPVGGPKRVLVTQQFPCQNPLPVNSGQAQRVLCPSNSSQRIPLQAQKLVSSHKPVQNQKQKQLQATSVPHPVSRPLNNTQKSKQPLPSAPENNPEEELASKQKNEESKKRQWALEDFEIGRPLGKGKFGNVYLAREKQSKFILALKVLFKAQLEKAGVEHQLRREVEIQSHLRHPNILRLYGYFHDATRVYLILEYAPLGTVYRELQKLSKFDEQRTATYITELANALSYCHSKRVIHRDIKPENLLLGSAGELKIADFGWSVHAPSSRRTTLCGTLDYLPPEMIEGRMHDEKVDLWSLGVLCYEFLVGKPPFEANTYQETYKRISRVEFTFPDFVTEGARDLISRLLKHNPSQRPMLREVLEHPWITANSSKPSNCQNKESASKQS
Procedure: Compounds were tested for their potency against recombinant Aurora A (Upstate, Lake Placid, N.Y.) using the PanVera Z′-Lyte kinase assay kit-Ser/Thr 1 peptide (Invitrogen, Carlsbad, Calif.). Assays were carried out in kinase assay buffer (50 mM HEPES, pH 7.5, 10 mM MgCl2, 5 mM EGTA, 0.05% Brij-35, 2 mM DTT). Test compounds were initially dissolved in DMSO at 100× the highest tested concentration, then serially diluted to 4× test concentrations in kinase assay buffer. Next, Aurora A (final concentration 200-500 ng/mL), Z′-Lyte Ser/Thr 1 peptide (final concentration 2 μM) and ATP (final concentration 10 μM) were added according to the manufacturer's instructions. Assays were carried out in half-area 96-well white polystyrene assay plates (Corning, Corning, N.Y.) in a final volume of 20 μl. The reaction was allowed to proceed for 1 h at room temperature in the dark, at which point the development reagent and stop reagent were added according to the manufacturer's instructions. Coumarin (Ex. 400 nm, Em. 465 nm) and fluorescein (Ex. 400 nm, Em. 565 nm) fluorescence values were measured on a SpectraFluor Plus plate reader (Tecan, Durham, N.C.). The emission ratio (coumarin/fluorescein) was determined and used to calculate the percent phosphorylation for each well. Wells containing substrate but no kinase and wells containing a phosphopeptide control were used to set 0% and 100% phosphorylation values, respectively. Typically 20-40% of the substrate was phosphorylated in wells without inhibitor. Dose-response curves of relative Aurora A activity vs. inhibitor concentration were plotted with Grafit (Erithacus Software, Horley, Surrey, UK).

[3] = target: T5, N-terminal His6-tagged recombinant human KDR, residues 790-end (Homo sapiens, UniProt P35968); experiment: KDR kinase inhibition assay (33P-ATP filter assay); details: 40 minutes, room temperature; less than or equal to 100 nM
T5 construct: recombinant human KDR, residues 790-end; His6 (N); purchased Upstate USA Inc, Charlottesville, Va
Procedure: as §1, with “KDR” for “Flt3”, “His6-tagged” for “GST-tagged”, “KDR,” for “Flt3,”, “790-end” for “564-end”, “0.33 mg/mL myelin basic protein” for “50 μM amino acid sequence EAIYAAPFAKKK”

T5 sequence (P35968 790-1356 limits assumed): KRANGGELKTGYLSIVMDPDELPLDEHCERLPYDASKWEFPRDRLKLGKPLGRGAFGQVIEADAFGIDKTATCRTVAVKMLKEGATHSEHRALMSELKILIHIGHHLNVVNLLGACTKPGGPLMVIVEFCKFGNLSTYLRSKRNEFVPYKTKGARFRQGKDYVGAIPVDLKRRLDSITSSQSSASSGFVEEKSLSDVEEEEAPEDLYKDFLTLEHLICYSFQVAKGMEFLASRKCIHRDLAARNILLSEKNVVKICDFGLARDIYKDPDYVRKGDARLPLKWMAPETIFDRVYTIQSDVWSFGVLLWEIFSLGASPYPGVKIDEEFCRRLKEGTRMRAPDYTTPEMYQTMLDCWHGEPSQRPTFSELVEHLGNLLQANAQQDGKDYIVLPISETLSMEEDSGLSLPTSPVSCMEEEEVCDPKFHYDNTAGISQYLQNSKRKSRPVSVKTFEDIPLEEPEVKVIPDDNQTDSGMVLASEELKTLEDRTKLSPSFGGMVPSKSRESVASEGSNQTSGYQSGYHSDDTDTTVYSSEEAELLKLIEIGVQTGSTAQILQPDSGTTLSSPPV
T3 sequence (P12931 whole entry): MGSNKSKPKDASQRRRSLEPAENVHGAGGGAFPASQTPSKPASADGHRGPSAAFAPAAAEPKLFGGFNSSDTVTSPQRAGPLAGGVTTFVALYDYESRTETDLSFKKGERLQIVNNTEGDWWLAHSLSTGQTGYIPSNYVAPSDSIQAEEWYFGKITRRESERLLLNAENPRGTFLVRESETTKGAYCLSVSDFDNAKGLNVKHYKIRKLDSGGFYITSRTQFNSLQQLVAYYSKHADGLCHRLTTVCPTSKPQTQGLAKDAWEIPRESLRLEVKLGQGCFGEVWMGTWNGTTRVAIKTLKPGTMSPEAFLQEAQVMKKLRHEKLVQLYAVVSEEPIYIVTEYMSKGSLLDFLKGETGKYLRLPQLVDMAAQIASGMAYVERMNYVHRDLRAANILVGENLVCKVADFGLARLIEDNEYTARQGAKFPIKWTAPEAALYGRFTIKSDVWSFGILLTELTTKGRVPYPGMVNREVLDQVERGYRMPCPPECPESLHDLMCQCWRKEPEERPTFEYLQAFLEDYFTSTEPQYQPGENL
T2 sequence (Q96GD4 whole entry): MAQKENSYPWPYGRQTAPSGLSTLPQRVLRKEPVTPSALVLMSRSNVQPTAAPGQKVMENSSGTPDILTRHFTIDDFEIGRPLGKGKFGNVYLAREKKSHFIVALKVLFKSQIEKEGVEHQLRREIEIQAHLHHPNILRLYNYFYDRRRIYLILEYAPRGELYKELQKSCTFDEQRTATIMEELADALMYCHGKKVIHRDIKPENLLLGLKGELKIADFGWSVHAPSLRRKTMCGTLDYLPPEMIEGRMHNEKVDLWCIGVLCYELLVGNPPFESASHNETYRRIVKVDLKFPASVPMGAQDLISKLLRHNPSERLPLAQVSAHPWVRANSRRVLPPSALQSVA

| IC50 [1] [nM] | IC50 (Aurora B kinase) [nM] | IC50 [2] [nM] | IC50 (recombinant Aurora A) [nM] | IC50 [3] [nM] | Structure (SMILES) |
| --- | --- | --- | --- | --- | --- |
| ≤ 100 | ≤ 100 | ≤ 100 | ≤ 100 | ≤ 100 | Cc1cc(Nc2cc(N3CCC(N4CCOCC4)CC3)nc(/C=C/c3ccccc3)n2)n[nH]1 [Compound 7, (E)-N-(5-methyl-1H-pyrazol-3-yl)-6-(4-morpholinopiperidin-1-yl)-2-styrylpyrimidin-4-amine] |
| ≤ 100 | ≤ 100 | ≤ 100 | ≤ 100 | ≤ 100 | Cc1cc(Nc2cc(N3CC(O)(C4CC4)C3)nc(/C=C/c3ccccc3)n2)n[nH]1 [Compound 3, (E)-3-cyclopropyl-1-(6-(5-methyl-1H-pyrazol-3-ylamino)-2-styrylpyrimidin-4-yl)azetidin-3-ol] |
| ≤ 100 | – | ≤ 100 | ≤ 100 | ≤ 100 | Cc1cc(Nc2cc(N3CCN(C4CCN(C)CC4)CC3)nc(/C=C/c3ccccc3)n2)n[nH]1 [Compound 4, (E)-N-(5-methyl-1H-pyrazol-3-yl)-6-(4-(1-methylpiperidin-4-yl)piperazin-1-yl)-2-styrylpyrimidin-4-amine] |
| ≤ 100 | – | ≤ 100 | ≤ 100 | ≤ 100 | Cc1cc(Nc2cc(N3CCC(N4CCCCC4)C3)nc(/C=C/c3ccccc3)n2)n[nH]1 (stereo not drawn) [Compound 23, (E)-N-(5-methyl-1H-pyrazol-3-yl)-6-(3-(piperidin-1-yl)pyrrolidin-1-yl)-2-styrylpyrimidin-4-amine] |
